Experiments:
[1] = system: Hr-1 (Skh-1) hairless mice; assay: Tests of wrinkle improvement on hairless mice (UVB-induced wrinkles); format: in vivo; conditions: 3% sample solution in 50% ethanol, 100 μL on back skin once a day, five times a week, versus solvent (50% ethanol), FIG. 1, statistically significant
Text: Wrinkles were formed on Hr-1 (Skh-1) hairless mice (age 6 to 10 weeks) according to a partly modified version of the method of Schwartz et al. (see Haratake A. et al. J. Invest. Dermatol., 108, 769-775, 1997), in which the mice were repeatedly irradiated with UVB (see Naganuma M. et al. J. Dermatol. Sci., 25, 29-35, 2001; Schwartz E. J. Invest. Dermatol. 91, 158-161, 1988). Specifically, the backs [of the mice] were irradiated with UVB (light source: Toshiba FL-20 SE fluorescent lamp, made by Toshiba Electric) three times a week for ten weeks. The amount of irradiation after the treatment commenced was 36 mJ/cm^2/irradiation. […] The total irradiation amount was 4.6 J/cm^2. Values for the amount of ultraviolet light were measured used a UV radiometer (UVR-305/365D(II), [made by] Topcon). [After] irradiation with ultraviolet light was completed, photographs were taken of the backs of the mice, and the degree of wrinkle generation was scored according to the wrinkle evaluation standards given below using a partially modified version of the method of Bissett et al. (see Bissett, D. L., et al. Photochemistry and Photobiology, 46, 367-378, 1987). Scores of 0, 2, 4, 6, and 8 were used as standard values, and 1, 3, 5, and 7 were used as intermediate scores. […]
The degree of wrinkle improvement of the mice was determined in the following manner. […]

[2] = system: healthy male panelists having a large number of wrinkles; assay: Tests of improvement in wrinkles that form in the corners of the eyes (half-face blind test, replica analysis and survey); format: in vivo; conditions: 2.5 mass % in face lotion, human eye corners
Experimental: Face lotions (an example and a comparative example) having the compositions given below were applied three times a day using the half-face method (blind tests) to the faces of healthy male panelists having a large number of wrinkles.
Replicas of the eye corner portions to which lotion was applied were acquired using a SILFLO [apparatus] (Flexico Development Ltd.). The proportion of wrinkle area and the proportion of wrinkle volume were determined for before the application of the face lotion (0 M), after one month of application (1 M), and after two months of application (2 M). […] Both the wrinkle area proportion and the wrinkle volume proportion were determined by analyzing the replicas using a wrinkle-measuring apparatus employing a laser-cutting method (see Japanese Laid-Open Patent Application No. 7-113623).
The results of a survey concerning “Impressions of the Effectiveness of Wrinkle Improvement” sent to 23 test subjects are shown in Table 1.

SMILES: O=C(O)CCNC(=O)c1ccccc1 [N-benzoyl-β-alanine]
- degree of wrinkle improvement (score before sample application − score after five weeks of sample application) [1]: reduction in wrinkles dramatically accelerated
- wrinkle-improving effect (overall conclusion of Example 2) [2]: had a wrinkle-improving effect

Source: patent US20120165409A1, “WRINKLE-IMPROVING AGENT” (SHISEIDO COMPANY, LTD., priority 2005, published 2012)
